Reference: patent US8536354B2, “Steroidal ligands and their use in gene switch modulation” (Intrexon Corporation, priority 2008, dated 2013)
pEC50: −log10 of the molar value. Read-outs that look alike come from different tables or passages of the source.

Legend:
[1] = target: wild-type Drosophila melanogaster EcR (DmEcR; GAL4-EcR DEF with VP16-RXR-USP chimera) (Drosophila melanogaster, UniProt P34021); experiment: Two-hybrid gene switch assay, luciferase reporter, wild-type DmEcR, mouse NIH3T3 cells; type: cell-based
wild-type Drosophila melanogaster EcR (DmEcR; GAL4-EcR DEF with VP16-RXR-USP chimera), sequence (P34021 with tags, fused parts or gaps limits assumed): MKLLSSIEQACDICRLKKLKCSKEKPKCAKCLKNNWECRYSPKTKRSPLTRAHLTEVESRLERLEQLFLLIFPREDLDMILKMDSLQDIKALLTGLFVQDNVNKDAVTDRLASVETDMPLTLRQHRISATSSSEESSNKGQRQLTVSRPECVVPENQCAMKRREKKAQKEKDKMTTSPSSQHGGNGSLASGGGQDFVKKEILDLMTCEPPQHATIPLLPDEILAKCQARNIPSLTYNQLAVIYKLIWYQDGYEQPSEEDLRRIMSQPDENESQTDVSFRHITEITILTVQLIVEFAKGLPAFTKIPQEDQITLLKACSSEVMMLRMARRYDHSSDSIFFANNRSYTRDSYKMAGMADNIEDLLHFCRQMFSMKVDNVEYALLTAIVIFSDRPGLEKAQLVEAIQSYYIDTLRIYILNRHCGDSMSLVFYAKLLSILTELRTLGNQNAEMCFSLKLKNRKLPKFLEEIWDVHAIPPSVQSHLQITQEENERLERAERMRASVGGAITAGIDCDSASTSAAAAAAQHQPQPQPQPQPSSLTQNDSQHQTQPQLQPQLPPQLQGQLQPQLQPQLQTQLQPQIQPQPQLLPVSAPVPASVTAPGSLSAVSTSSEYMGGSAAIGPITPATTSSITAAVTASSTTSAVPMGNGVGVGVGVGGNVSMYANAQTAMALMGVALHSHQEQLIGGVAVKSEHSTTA

[2] = system: NcEcR (GAL4-EcR DEF with VP16-RXR partner); experiment: Two-hybrid gene switch assay, luciferase reporter, NcEcR, mouse NIH3T3 cells
[3] = target: wild-type Aedes aegypti EcR (AaEcR; GAL4-EcR DEF with VP16-RXR-USP chimera) (Aedes aegypti, UniProt P49880); experiment: Two-hybrid gene switch assay, luciferase reporter, wild-type AaEcR, mouse NIH3T3 cells; type: cell-based
wild-type Aedes aegypti EcR (AaEcR; GAL4-EcR DEF with VP16-RXR-USP chimera), sequence (P49880 with tags, fused parts or gaps limits assumed, change not shown): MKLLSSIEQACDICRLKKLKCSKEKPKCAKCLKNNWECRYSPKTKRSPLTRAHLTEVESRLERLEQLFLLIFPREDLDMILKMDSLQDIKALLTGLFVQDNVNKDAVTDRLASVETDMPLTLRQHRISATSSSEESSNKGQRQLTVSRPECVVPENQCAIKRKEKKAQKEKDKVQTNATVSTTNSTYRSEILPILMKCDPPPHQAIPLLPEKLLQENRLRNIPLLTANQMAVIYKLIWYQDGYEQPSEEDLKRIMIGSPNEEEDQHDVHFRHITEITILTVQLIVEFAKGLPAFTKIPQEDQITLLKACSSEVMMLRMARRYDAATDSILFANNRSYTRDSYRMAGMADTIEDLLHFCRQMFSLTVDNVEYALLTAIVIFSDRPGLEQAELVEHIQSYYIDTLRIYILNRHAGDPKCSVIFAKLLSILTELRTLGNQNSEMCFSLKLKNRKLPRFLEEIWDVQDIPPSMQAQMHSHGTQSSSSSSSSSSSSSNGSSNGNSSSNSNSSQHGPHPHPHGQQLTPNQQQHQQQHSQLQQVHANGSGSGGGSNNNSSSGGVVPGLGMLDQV

[4] = target: T1, TmEcR (GAL4-EcR DEF with VP16-RXR partner) (Tenebrio molitor, UniProt O02035); experiment: Two-hybrid gene switch assay, luciferase reporter, TmEcR, mouse NIH3T3 cells
T1 sequence (O02035 194-491): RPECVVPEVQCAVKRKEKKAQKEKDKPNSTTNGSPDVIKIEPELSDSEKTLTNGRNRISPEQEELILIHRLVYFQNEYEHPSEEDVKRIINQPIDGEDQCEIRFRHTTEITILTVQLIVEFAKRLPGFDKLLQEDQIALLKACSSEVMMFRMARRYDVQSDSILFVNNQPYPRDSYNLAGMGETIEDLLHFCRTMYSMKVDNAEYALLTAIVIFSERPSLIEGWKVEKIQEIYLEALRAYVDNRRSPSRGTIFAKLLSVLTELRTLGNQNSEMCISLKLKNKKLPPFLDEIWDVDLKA
T1 sequence (P28704 1-520 partner): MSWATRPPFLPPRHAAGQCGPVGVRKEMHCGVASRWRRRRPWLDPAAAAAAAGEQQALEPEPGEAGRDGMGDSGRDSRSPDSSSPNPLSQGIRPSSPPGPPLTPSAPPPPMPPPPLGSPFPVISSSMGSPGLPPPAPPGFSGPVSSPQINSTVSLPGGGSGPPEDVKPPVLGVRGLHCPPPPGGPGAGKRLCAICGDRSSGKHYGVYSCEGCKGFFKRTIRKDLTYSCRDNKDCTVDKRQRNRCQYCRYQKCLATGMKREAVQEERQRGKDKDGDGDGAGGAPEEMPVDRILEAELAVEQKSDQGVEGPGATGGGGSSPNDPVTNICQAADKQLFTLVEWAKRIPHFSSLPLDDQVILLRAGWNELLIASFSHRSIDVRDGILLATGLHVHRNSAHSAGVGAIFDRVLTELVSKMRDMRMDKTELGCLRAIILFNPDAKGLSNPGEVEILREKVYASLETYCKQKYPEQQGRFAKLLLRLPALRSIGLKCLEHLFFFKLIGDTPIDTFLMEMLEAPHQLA

[5] = target: T2, BaEcR (GAL4-EcR DEF with VP16-RXR-USP chimera) (Bemisia tabaci, UniProt A0A6M3RDR8); experiment: Two-hybrid gene switch assay, luciferase reporter, BaEcR, mouse NIH3T3 cells
T2 sequence (A0A6M3RDR8 115-530): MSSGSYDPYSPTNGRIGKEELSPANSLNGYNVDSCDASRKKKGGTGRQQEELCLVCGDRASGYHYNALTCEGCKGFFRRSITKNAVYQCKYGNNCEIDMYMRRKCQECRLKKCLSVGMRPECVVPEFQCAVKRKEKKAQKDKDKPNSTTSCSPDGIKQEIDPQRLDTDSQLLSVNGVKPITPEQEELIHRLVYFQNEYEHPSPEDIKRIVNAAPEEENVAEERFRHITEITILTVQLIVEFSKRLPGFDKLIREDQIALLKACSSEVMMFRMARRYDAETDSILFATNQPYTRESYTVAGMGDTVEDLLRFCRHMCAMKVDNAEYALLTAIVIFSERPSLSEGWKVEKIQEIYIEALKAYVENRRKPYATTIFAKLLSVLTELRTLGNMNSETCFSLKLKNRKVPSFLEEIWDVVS
T2 sequence (P28702 1-533 partner): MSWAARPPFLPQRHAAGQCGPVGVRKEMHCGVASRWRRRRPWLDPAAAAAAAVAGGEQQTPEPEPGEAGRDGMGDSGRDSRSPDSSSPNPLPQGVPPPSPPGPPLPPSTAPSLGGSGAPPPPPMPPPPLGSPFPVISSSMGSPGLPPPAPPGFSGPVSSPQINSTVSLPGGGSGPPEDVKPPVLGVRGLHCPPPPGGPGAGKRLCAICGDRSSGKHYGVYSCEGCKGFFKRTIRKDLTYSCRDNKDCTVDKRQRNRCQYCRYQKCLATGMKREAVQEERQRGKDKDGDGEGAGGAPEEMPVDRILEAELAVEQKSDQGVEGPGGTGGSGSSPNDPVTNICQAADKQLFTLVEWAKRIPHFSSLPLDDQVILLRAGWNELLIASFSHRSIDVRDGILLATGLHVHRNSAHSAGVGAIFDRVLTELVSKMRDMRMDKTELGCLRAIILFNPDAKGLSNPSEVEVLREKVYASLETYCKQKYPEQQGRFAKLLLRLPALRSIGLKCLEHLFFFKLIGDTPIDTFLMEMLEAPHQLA

[6] = target: T3, wild-type CfEcR (GAL4-CfEcR-DEF with VP16-RXR-USP chimera) (Choristoneura fumiferana, UniProt O77255); experiment: Two-hybrid gene switch assay, luciferase reporter, wild-type CfEcR, mouse NIH3T3 cells
T3 sequence (O77255 219-541): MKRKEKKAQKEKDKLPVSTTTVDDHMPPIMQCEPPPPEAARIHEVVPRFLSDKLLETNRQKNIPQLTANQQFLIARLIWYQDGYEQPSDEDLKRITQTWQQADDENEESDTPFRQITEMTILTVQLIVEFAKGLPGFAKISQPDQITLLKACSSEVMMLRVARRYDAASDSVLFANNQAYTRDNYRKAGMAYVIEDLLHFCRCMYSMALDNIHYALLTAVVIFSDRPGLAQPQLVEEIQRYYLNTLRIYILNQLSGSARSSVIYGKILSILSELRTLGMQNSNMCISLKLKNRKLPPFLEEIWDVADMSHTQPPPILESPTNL
T3 sequence (P28702 1-533 partner): T2 sequence (P28702 1-533 partner)

[7] = EC50, FIG. 14A/14B, GAL4-EcR(DEF) with VP16-RXR-USP chimera
[8] = FIG. 14A/14B, GAL4-EcR(DEF) with VP16-RXR-USP chimera, read-out: EC50
[9] = EC50, FIG. 14A/14B, GAL4-EcR(DEF)
[10] = EC50, FIG. 16, GAL4-EcR (DEF) / VP16-RXR-USP chimera

Row | Compound | pEC50 [1, 7] | pEC50 ([2]; FIG. 14A/14B, GAL4-EcR(DEF)) | pEC50 [3, 8] | pEC50 [4, 9] | pEC50 [5, 7] | pEC50 [6] | pEC50 [3, 7] | pEC50 [1, 10] | pEC50 ([2]; FIG. 16, GAL4-EcR (DEF)) | pEC50 [3, 10] | pEC50 ([4]; EC50, FIG. 16, GAL4-EcR (DEF)) | pEC50 [5, 10] | pEC50 ([6]; FIG. 15, CfEcR, GAL4-EcR (DEF) / VP16-RXR-USP chimera)
1 | CC(C)(O)CC[C@@H](OC(=O)c1ccc[nH]1)[C@](C)(O)[C@H]1CC[C@@]2(O)C3=CC(=O)[C@@H]4C[C@@H](O)[C@@H](O)C[C@]4(C)[C@H]3CC[C@]12C | ~4.70 | ~5.30 | ~5.00 | ~4.70 | ~4.82 | < 4.48 | – | – | – | – | – | – | –
2 | CC(=O)OCC(=O)O[C@H](CCC(C)(C)O)[C@](C)(O)[C@H]1CC[C@@]2(O)C3=CC(=O)[C@@H]4C[C@@H](O)[C@@H](O)C[C@]4(C)[C@H]3CC[C@]12C [20-hydroxyecdysone 22-acetoxyacetate] | ~4.70 | 6.12 | ~5.48 | ~5.00 | ~4.92 | < 4.48 | – | – | – | – | – | – | –
3 | CC(C)(O)CC[C@@H](O)[C@](C)(O)[C@H]1CC[C@@]2(O)C3=CC(=O)[C@@H]4C[C@H]5OC(C)(C)O[C@H]5C[C@]4(C)[C@H]3CC[C@]12C [20-hydroxyecdysone-2,3-acetonide] | < 4.48 | 5.54 | ~4.82 | ~5.00 | ~4.82 | < 4.48 | – | – | – | – | – | – | –
4 | C[C@@H](CO)CC[C@@H](O)[C@](C)(O)[C@H]1CC[C@@]2(O)C3=CC(=O)[C@@H]4C[C@@H](O)[C@@H](O)C[C@]4(C)[C@H]3CC[C@]12C [(25R)-inokosterone] | 5.02 | 6.06 | ~5.60 | ~4.70 | ~5.00 | < 4.48 | – | – | – | – | – | – | –
5 | C[C@H](CO)CC[C@@H](O)[C@](C)(O)[C@H]1CC[C@@]2(O)C3=CC(=O)[C@@H]4C[C@@H](O)[C@@H](O)C[C@]4(C)[C@H]3CC[C@]12C [(25S)-inokosterone] | ~4.70 | ~5.82 | ~5.40 | ~5.00 | ~5.00 | < 4.48 | – | – | – | – | – | – | –
6 | CC(C(O)CCC(C)(C)O)C1CCC2(O)C3=CC(=O)C4CC(O)CCC4(C)C3CCC12C (stereo not drawn) [Compound 2-deoxyecdysone] | < 4.48 | ~5.22 | ~5.00 | < 4.48 | < 4.48 | < 4.48 | – | – | – | – | – | – | –
7 | CC(C)(O)CC[C@@H](O)[C@](C)(O)[C@H]1CC[C@@]2(O)C3=C[C@H](O)[C@@H]4C[C@@H](O)[C@@H](O)C[C@]4(C)[C@H]3CC[C@]12C [Compound 6a-hydroxy-20-hydroxyecdysone] | < 4.48 | ~5.00 | ~4.92 | < 4.48 | < 4.48 | < 4.48 | – | – | – | – | – | – | –
8 | CC(C)(O)CC[C@@H](O)[C@](C)(O)[C@H]1CC[C@@]2(O)C3=C[C@@H](O)[C@@H]4C[C@@H](O)[C@@H](O)C[C@]4(C)[C@H]3CC[C@]12C [Compound 6b-hydroxy-20-hydroxyecdysone] | ~4.70 | 5.77 | ~5.22 | ~4.70 | ~4.70 | < 4.48 | – | – | – | – | – | – | –
9 | CC(=O)O[C@H](CCC(C)(C)O)[C@](C)(O)[C@H]1CC[C@@]2(O)C3=CC(=O)[C@@H]4C[C@@H](O)[C@@H](O)C[C@]4(C)[C@H]3CC[C@]12C [Compound 20-hydroxyecdysone-22-acetate] | < 4.48 | 5.61 | ~5.70 | ~5.70 | ~5.70 | < 4.48 | – | – | – | – | – | – | –
10 | CC(C)(O)CCC(=O)[C@](C)(O)[C@H]1CC[C@@]2(O)C3=CC(=O)[C@@H]4C[C@@H](O)[C@@H](O)C[C@]4(C)[C@H]3CC[C@]12C [Compound 22-dehydro-20-hydroxyecdysone] | ~4.70 | 5.73 | ~5.70 | ~4.82 | ~4.92 | < 4.48 | – | – | – | – | – | – | –
11 | CC(C)(O)CC[C@@H](O)[C@](C)(O)[C@H]1CC[C@@]2(O)C3=CC(=O)[C@@H]4C[C@@H](O)[C@@H](O)C[C@]4(C)C3=CC[C@]12C [Compound 25-hydroxydacryhainansterone] | < 4.48 | 5.90 | ~5.30 | ~4.70 | ~4.82 | < 4.48 | – | – | – | – | – | – | –
12 | CC(C)CC[C@@H](O)[C@](C)(O)[C@H]1CC[C@@]2(O)C3=CC(=O)[C@@H]4C[C@@H](O)[C@@H](O)C[C@]4(C)[C@H]3[C@H](O)C[C@]12C [ajugasterone C] | ~5.70 | 7.10 | – | 5.02 | 5.69 | ~4.70 | 7.15 | – | – | – | – | – | –
13 | CC(C)(O)C(CCC(C)(O)C1CCC2(O)C3=CC(=O)C4CC(O)C(O)CC4(C)C3CCC12C)OC(=O)c1ccc[nH]1 (stereo not drawn) [canescensterone] | ~6.30 | ~6.48 | ~6.70 | ~6.48 | ~6.70 | < 5.00 | – | – | – | – | – | – | –
14 | CC1(C)OC(=O)C=C1CC(O)C(C)(O)C1CCC2(O)C3=CC(=O)C4CC(O)C(O)CC4(C)C3CCC12C (stereo not drawn) [carthamosterone] | < 4.48 | ~5.00 | ~4.82 | < 4.48 | < 4.48 | < 4.48 | – | – | – | – | – | – | –
15 | C[C@@H]1C(=O)O[C@H](C)[C@H]1C[C@@H](O)[C@](C)(O)[C@H]1CC[C@@]2(O)C3=CC(=O)[C@@H]4C[C@@H](O)[C@@H](O)C[C@]4(C)[C@H]3CC[C@]12C [cyasterone] | < 4.48 | 5.74 | 5.52 | < 4.48 | ~5.00 | ~6.00 | – | – | – | – | – | – | –
16 | C[C@H]([C@H](O)CCC(C)(C)O)[C@H]1CC[C@@]2(O)C3=CC(=O)[C@@H]4C[C@@H](O)[C@@H](O)C[C@]4(C)[C@H]3CC[C@]12C [ecdysone] | < 4.48 | 5.49 | – | < 4.48 | < 4.48 | < 4.48 | ~4.82 | < 4.48 | 5.60 | 5.46 | < 4.48 | < 4.48 | < 4.48
